Assay results as given in PubChem BioAssay AID1919016 (Molecular Pharmacology Branch, DTP, NCI, 2023).

Test system: NCI-H196 complex spheroid growth, percent test/control
Assay: Anticancer human tumor NCI-H196 cell line growth inhibition [AhR];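 also: seven days of drug exposure starting three days after plating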;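 as to viability, T/C: 100% = DMSO vehicle control wells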
Settings: for IC50: curve of first compound; for viability, T/C: stronger effect = lower value
Procedure, shortened: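 Complex tumor spheroids co-cultured with HUVEC and human MSC stroma; AhR antagonists tested in combination with standard-of-care and investigational agents. Top concentration at or near clinical Cmax (else 10 microM), half-log dilutions; growth expressed as percent test/control.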

CCN(c1cc(-c2ccc(CN3CCOCC3)cc2)cc(C(=O)NCc2c(C)cc(C)[nH]c2=O)c1C)C1CCOCC1 + CC(CO)NC(=O)c1cc(-c2ccc(Cl)cc2)nn(-c2cnn(C)c2)c1=O
IC50 (second compound 0.1 µM): > 3 µM | IC50 (second compound 0.316 µM): > 3 µM | IC50 (second compound 1 µM): > 3 µM | IC50 (second compound 3.16 µM): > 3 µM | IC50 (second compound 10 µM): > 3 µM | viability, T/C (second compound 0.1 µM, first compound 0.00949 µM): 111% | viability, T/C (second compound 0.1 µM, first compound 0.03 µM): 111% | viability, T/C (second compound 0.1 µM, first compound 0.0949 µM): 105% | viability, T/C (second compound 0.1 µM, first compound 0.3 µM): 108% | viability, T/C (second compound 0.1 µM, first compound 0.949 µM): 111% | viability, T/C (second compound 0.1 µM, first compound 3 µM): 107% | viability, T/C (second compound 0.316 µM, first compound 0.00949 µM): 123% | viability, T/C (second compound 0.316 µM, first compound 0.03 µM): 118% | viability, T/C (second compound 0.316 µM, first compound 0.0949 µM): 105% | viability, T/C (second compound 0.316 µM, first compound 0.3 µM): 111% | viability, T/C (second compound 0.316 µM, first compound 0.949 µM): 118% | viability, T/C (second compound 0.316 µM, first compound 3 µM): 121% | viability, T/C (second compound 1 µM, first compound 0.00949 µM): 112% | viability, T/C (second compound 1 µM, first compound 0.03 µM): 116% | viability, T/C (second compound 1 µM, first compound 0.0949 µM): 113% | viability, T/C (second compound 1 µM, first compound 0.3 µM): 117% | viability, T/C (second compound 1 µM, first compound 0.949 µM): 118% | viability, T/C (second compound 1 µM, first compound 3 µM): 118% | viability, T/C (second compound 3.16 µM, first compound 0.00949 µM): 121% | viability, T/C (second compound 3.16 µM, first compound 0.03 µM): 112% | viability, T/C (second compound 3.16 µM, first compound 0.0949 µM): 121% | viability, T/C (second compound 3.16 µM, first compound 0.3 µM): 112% | viability, T/C (second compound 3.16 µM, first compound 0.949 µM): 123% | viability, T/C (second compound 3.16 µM, first compound 3 µM): 108% | viability, T/C (second compound 10 µM, first compound 0.00949 µM): 120% | viability, T/C (second compound 10 µM, first compound 0.03 µM): 127% | viability, T/C (second compound 10 µM, first compound 0.0949 µM): 123% | viability, T/C (second compound 10 µM, first compound 0.3 µM): 115% | viability, T/C (second compound 10 µM, first compound 0.949 µM): 115% | viability, T/C (second compound 10 µM, first compound 3 µM): 124%

Nc1ccn(C2OC(CO)C(O)C2(F)F)c(=O)n1 (stereo not given) + CC(CO)NC(=O)c1cc(-c2ccc(Cl)cc2)nn(-c2cnn(C)c2)c1=O
IC50 (second compound 0.1 µM): > 10 µM | IC50 (second compound 0.316 µM): > 10 µM | IC50 (second compound 1 µM): > 10 µM | IC50 (second compound 3.16 µM): > 10 µM | IC50 (second compound 10 µM): > 10 µM | viability, T/C (second compound 0.1 µM, first compound 0.0316 µM): 94% | viability, T/C (second compound 0.1 µM, first compound 0.1 µM): 93.3% | viability, T/C (second compound 0.1 µM, first compound 0.316 µM): 67.5% | viability, T/C (second compound 0.1 µM, first compound 1 µM): 60.2% | viability, T/C (second compound 0.1 µM, first compound 3.16 µM): 65.2% | viability, T/C (second compound 0.1 µM, first compound 10 µM): 63.1% | viability, T/C (second compound 0.316 µM, first compound 0.0316 µM): 101% | viability, T/C (second compound 0.316 µM, first compound 0.1 µM): 98% | viability, T/C (second compound 0.316 µM, first compound 0.316 µM): 67.9% | viability, T/C (second compound 0.316 µM, first compound 1 µM): 65.1% | viability, T/C (second compound 0.316 µM, first compound 3.16 µM): 62% | viability, T/C (second compound 0.316 µM, first compound 10 µM): 63.7% | viability, T/C (second compound 1 µM, first compound 0.0316 µM): 92.9% | viability, T/C (second compound 1 µM, first compound 0.1 µM): 86.6% | viability, T/C (second compound 1 µM, first compound 0.316 µM): 75.1% | viability, T/C (second compound 1 µM, first compound 1 µM): 60.7% | viability, T/C (second compound 1 µM, first compound 3.16 µM): 61.1% | viability, T/C (second compound 1 µM, first compound 10 µM): 69.8% | viability, T/C (second compound 3.16 µM, first compound 0.0316 µM): 98.3% | viability, T/C (second compound 3.16 µM, first compound 0.1 µM): 96.4% | viability, T/C (second compound 3.16 µM, first compound 0.316 µM): 69.9% | viability, T/C (second compound 3.16 µM, first compound 1 µM): 61.3% | viability, T/C (second compound 3.16 µM, first compound 3.16 µM): 59.7% | viability, T/C (second compound 3.16 µM, first compound 10 µM): 70.3% | viability, T/C (second compound 10 µM, first compound 0.0316 µM): 105% | viability, T/C (second compound 10 µM, first compound 0.1 µM): 101% | viability, T/C (second compound 10 µM, first compound 0.316 µM): 78% | viability, T/C (second compound 10 µM, first compound 1 µM): 73.1% | viability, T/C (second compound 10 µM, first compound 3.16 µM): 66.8% | viability, T/C (second compound 10 µM, first compound 10 µM): 73.2%
